# Reference: patent US12564638B2 (SHANGHAITECH UNIVERSITY, priority 2019, dated 2026)
# Read-outs that look alike come from different tables or passages of the source.
# What was measured:
# [1] = system: HCC827 cells (EGFR Exon19 del, non-small cell lung cancer cells); assay: Cell viability assay (WST/CCK8), HCC827 cells; format: cell-based; conditions: Homo sapiens, HCC827, 72 h, HCC827 (Exon19 Del), 72 hours, read-out: IC50 (half inhibitory concentration)
# How it was run: (§1)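 Cells seeded at 3 000/well in RPMI1640 complete medium, dosed next day with compounds (top 10 μM, 3-fold, 10 points) for 72 h. Viability read with WST (CCK8) reagent; DMSO as negative control, EGFR TKIs as positive controls; IC50 determined.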
# [2] = system: PC9 cells (EGFR Exon 19 del, non-small cell lung cancer cells); assay: Cell viability assay (WST/CCK8), PC9 cells; format: cell-based; conditions: Homo sapiens, PC-9, PC9 (Exon19 Del), 72 hours, read-out: IC50 (half inhibitory concentration)
# How it was run: as §1
# [3] = Table 6, canertinib-based compounds, WST
# [4] = Table 4, gefitinib and sapitinib-based compounds, WST
# [5] = Table 4, gefitinib-based compounds, WST
SMILES,IC50 ([1]; WST (CCK8)) [nM],IC50 ([2]; WST (CCK8)) [nM],also measured
"COc1cc2ncnc(Nc3ccc(F)c(Cl)c3)c2cc1NC(=O)/C=C/CN1CCN(C(=O)COCCSc2cccc3c2CN(C2CCC(=O)NC2=O)C3=O)CC1 (stereo not drawn) [SIAIS219193, (E)-N-(4-((3-chloro-4-fluorophenyl)amino)-7-methoxyquinazolin-6-yl)-4-(4-(2-(2-((2-(2,6-dioxopiperidin-3-yl)-1-oxoisoindolin-4-yl)thio)ethoxy)acetyl)piperazin-1-yl)but-2-enamide]",2.2,43.6,
"COc1cc2ncnc(Nc3ccc(F)c(Cl)c3)c2cc1NC(=O)/C=C/CN1CCC(N2CCN(C(=O)CCc3cccc4c3CN(C3CCC(=O)NC3=O)C4=O)CC2)CC1 (stereo not drawn) [SIAIS262052, (E)-N-(4-((3-chloro-4-fluorophenyl)amino)-7-methoxyquinazolin-6-yl)-4-(4-(4-(3-(2-(2,6-dioxopiperidin-3-yl)-1-oxoisoindolin-4-yl)propanoyl)piperazin-1-yl)piperidin-1-yl)but-2-enamide]",1.4,1.3,
"COc1cc2ncnc(Nc3ccc(F)c(Cl)c3)c2cc1NC(=O)/C=C/CN1CCC(N2CCN(C(=O)CCCCCNc3cccc4c3CN(C3CCC(=O)NC3=O)C4=O)CC2)CC1 (stereo not drawn) [SIAIS337035, (E)-N-(4-((3-chloro-4-fluorophenyl)amino)-7-methoxyquinazolin-6-yl)-4-(4-(4-(6-((2-(2,6-dioxopiperidin-3-yl)-1-oxoisoindolin-4-yl)amino)hexanoyl)piperazin-1-yl)piperidin-1-yl)but-2-enamide]",4.3,6.3,
"C=CC(=O)Nc1cc2c(Nc3ccc(F)c(Cl)c3)ncnc2cc1OCCCN1CCC(N2CCNCC2)CC1 [Caneritinib derivative B (SIAIS249183), N-(4-((3-chloro-4-fluorophenyl)amino)-7-(3-(4-(piperazin-1-yl)piperidin-1-yl)propoxy)quinazolin-6-yl)acrylamide]",,,"IC50 [1, 3]: 15.9 nM; IC50 [2, 3]: 13.9 nM"
"C=CC(=O)Nc1cc2c(Nc3ccc(F)c(Cl)c3)ncnc2cc1OCCCN1CCN(C(=O)CCN2CCN(CCC(=O)N[C@H](C(=O)N3C[C@H](O)C[C@H]3C(=O)NCc3ccc(-c4scnc4C)cc3)C(C)(C)C)CC2)CC1 [SIAIS249101, (2S,4R)-1-((S)-2-(3-(4-(3-(4-(3-((6-acrylamido-4-((3-chloro-4-fluorophenyl)amino)quinazolin-7-yl)oxy)propyl)piperazin-1-yl)-3-oxopropyl)piperazin-1-yl)propanamido)-3,3-dimethylbutanoyl)-4-hydroxy-N-(4-(4-methylthiazol-5-yl)benzyl)pyrrolidine-2-carboxamide]",,,"IC50 [1, 3]: 70 nM; IC50 [2, 3]: 58.5 nM"
"COc1cc2ncnc(Nc3ccc(F)c(Cl)c3)c2cc1OCCCN1CCN(C(=O)CCCCCSc2cccc3c2C(=O)N(C2CCC(=O)NC2=O)C3=O)CC1 (stereo not drawn) [SIAIS184166, 4-((6-(4-(3-((4-((3-chloro-4-fluorophenyl)amino)-7-methoxyquinazolin-6-yl)oxy)propyl)piperazin-1-yl)-6-oxohexyl)thio)-2-(2,6-dioxopiperidin-3-yl)isoindoline-1,3-dione]",,,"IC50 [1, 4]: 80 nM; IC50 [2, 5]: 692 nM"
"COc1cc2ncnc(Nc3ccc(F)c(Cl)c3)c2cc1NC(=O)/C=C/CN1CCC(N2CCN(CCCCCCCCCCSc3cccc4c3CN(C3CCC(=O)NC3=O)C4=O)CC2)CC1 (stereo not drawn) [SIAIS337039, (E)-N-(4-((3-chloro-4-fluorophenyl)amino)-7-methoxyquinazolin-6-yl)-4-(4-(4-(10-((2-(2,6-dioxopiperidin-3-yl)-1-oxoisoindolin-4-yl)thio)decyl)piperazin-1-yl)piperidin-1-yl)but-2-enamide]",5.7,19.7,
"COc1cc2ncnc(Nc3ccc(F)c(Cl)c3)c2cc1NC(=O)/C=C/CN1CCN(C(=O)CCCCNc2cccc3c2C(=O)N(C2CCC(=O)NC2=O)C3=O)CC1 (stereo not drawn) [SIAIS249048, (E)-N-(4-((3-chloro-4-fluorophenyl)amino)-7-methoxyquinazolin-6-yl)-4-(4-(5-((2-(2,6-dioxopiperidin-3-yl)-1,3-dioxoisoindolin-4-yl)amino)pentanoyl)piperazin-1-yl)but-2-enamide]",3.2,10.3,
"COc1cc2ncnc(Nc3ccc(F)c(Cl)c3)c2cc1NC(=O)/C=C/CN1CCN(C(=O)COCCOCCOCCSc2cccc3c2C(=O)N(C2CCC(=O)NC2=O)C3=O)CC1 (stereo not drawn) [SIAIS262006, (E)-N-(4-((3-chloro-4-fluorophenyl)amino)-7-methoxyquinazolin-6-yl)-4-(4-(2-(2-(2-(2-((2-(2,6-dioxopiperidin-3-yl)-1,3-dioxoisoindolin-4-yl)thio)ethoxy)ethoxy)ethoxy)acetyl)piperazin-1-yl)but-2-enamide]",35.5,73,
"COc1cc2ncnc(Nc3ccc(F)c(Cl)c3)c2cc1OCCCN1CCN(C(=O)COCCOCCOCCSc2cccc3c2C(=O)N(C2CCC(=O)NC2=O)C3=O)CC1 (stereo not drawn) [SIAIS184169, 4-((2-(2-(2-(2-(4-(3-((4-((3-chloro-4-fluorophenyl)amino)-7-methoxyquinazolin-6-yl)oxy)propyl)piperazin-1-yl)-2-oxoethoxy)ethoxy)ethoxy)ethyl)thio)-2-(2,6-dioxopiperidin-3-yl)isoindoline-1,3-dione]",,,"IC50 [1, 4]: 22 nM; IC50 [2, 5]: 318 nM"
"COc1cc2ncnc(Nc3ccc(F)c(Cl)c3)c2cc1NC(=O)/C=C/CN1CCN(C(=O)CCCCCSc2cccc3c2CN(C2CCC(=O)NC2=O)C3=O)CC1 (stereo not drawn) [SIAIS219189, (E)-N-(4-((3-chloro-4-fluorophenyl)amino)-7-methoxyquinazolin-6-yl)-4-(4-(6-((2-(2,6-dioxopiperidin-3-yl)-1-oxoisoindolin-4-yl)thio)hexanoyl)piperazin-1-yl)but-2-enamide]",3.8,9.2,
"COc1cc2ncnc(Nc3ccc(F)c(Cl)c3)c2cc1NC(=O)/C=C/CN1CCC(N2CCN(C(=O)CCC(=O)NCCOCCNc3cccc4c3C(=O)N(C3CCC(=O)NC3=O)C4=O)CC2)CC1 (stereo not drawn) [SIAIS249103, (E)-N-(4-((3-chloro-4-fluorophenyl)amino)-7-methoxyquinazolin-6-yl)-4-(4-(4-(4-((2-(2-((2-(2,6-dioxopiperidin-3-yl)-1,3-dioxoisoindolin-4-yl)amino)ethoxy)ethyl)amino)-4-oxobutanoyl)piperazin-1-yl)piperidin-1-yl)but-2-enamide]",12.8,20.4,
"COc1cc2ncnc(Nc3ccc(F)c(Cl)c3)c2cc1NC(=O)/C=C/CN1CCN(C(=O)CCCCCCNc2cccc3c2C(=O)N(C2CCC(=O)NC2=O)C3=O)CC1 (stereo not drawn) [SIAIS262015, (E)-N-(4-((3-chloro-4-fluorophenyl)amino)-7-methoxyquinazolin-6-yl)-4-(4-(7-((2-(2,6-dioxopiperidin-3-yl)-1,3-dioxoisoindolin-4-yl)amino)heptanoyl)piperazin-1-yl)but-2-enamide]",3,12,
"COc1cc2ncnc(Nc3ccc(F)c(Cl)c3)c2cc1NC(=O)/C=C/CN1CCN(C(=O)CNc2cccc3c2C(=O)N(C2CCC(=O)NC2=O)C3=O)CC1 (stereo not drawn) [SIAIS219194, (E)-N-(4-((3-chloro-4-fluorophenyl)amino)-7-methoxyquinazolin-6-yl)-4-(4-(2-((2-(2,6-dioxopiperidin-3-yl)-1,3-dioxoisoindolin-4-yl)amino)acetyl)piperazin-1-yl)but-2-enamide]",5.3,4,
"COc1cc2ncnc(Nc3ccc(F)c(Cl)c3)c2cc1NC(=O)/C=C/CN1CCN(C(=O)CCCSc2cccc3c2CN(C2CCC(=O)NC2=O)C3=O)CC1 (stereo not drawn) [SIAIS219187, (E)-N-(4-((3-chloro-4-fluorophenyl)amino)-7-methoxyquinazolin-6-yl)-4-(4-(4-((2-(2,6-dioxopiperidin-3-yl)-1-oxoisoindolin-4-yl)thio)butanoyl)piperazin-1-yl)but-2-enamide]",6.7,33.3,
"COc1cc2ncnc(Nc3ccc(F)c(Cl)c3)c2cc1NC(=O)/C=C/CN1CCC(N2CCN(C(=O)CCC(=O)NCCNc3cccc4c3C(=O)N(C3CCC(=O)NC3=O)C4=O)CC2)CC1 (stereo not drawn) [SIAIS249104, (E)-N-(4-((3-chloro-4-fluorophenyl)amino)-7-methoxyquinazolin-6-yl)-4-(4-(4-(4-((2-((2-(2,6-dioxopiperidin-3-yl)-1,3-dioxoisoindolin-4-yl)amino)ethyl)amino)-4-oxobutanoyl)piperazin-1-yl)piperidin-1-yl)but-2-enamide]",18.2,37.6,
"COc1cc2ncnc(Nc3ccc(F)c(Cl)c3)c2cc1NC(=O)/C=C/CN1CCC(N2CCN(C(=O)COc3cccc4c3CN(C3CCC(=O)NC3=O)C4=O)CC2)CC1 (stereo not drawn) [SIAIS337025, (E)-N-(4-((3-chloro-4-fluorophenyl)amino)-7-methoxyquinazolin-6-yl)-4-(4-(4-(2-((2-(2,6-dioxopiperidin-3-yl)-1-oxoisoindolin-4-yl)oxy)acetyl)piperazin-1-yl)piperidin-1-yl)but-2-enamide]",5.6,36,
"COc1cc2ncnc(Nc3ccc(F)c(Cl)c3)c2cc1NC(=O)/C=C/CN1CCC(NC(=O)CSc2cccc3c2CN(C2CCC(=O)NC2=O)C3=O)CC1 (stereo not drawn) [SIAIS262110, (E)-N-(4-((3-chloro-4-fluorophenyl)amino)-7-methoxyquinazolin-6-yl)-4-(4-(2-((2-(2,6-dioxopiperidin-3-yl)-1-oxoisoindolin-4-yl)thio)acetamido)piperidin-1-yl)but-2-enamide]",20,73,
